Laboratory results as given in US10086010B2 (STC.UNM, priority 2014, dated 2018).
Read-outs that look alike come from different tables or passages of the source.

Tests used:
HT-29 cells [1] = test: Cell cycle analysis by flow cytometry; assay type: cell-based, human
Protocol: HT-29 cells that were seeded at 2×10^6 cells/plate in 10 cm dishes and incubated with 20 ng/ml nocodazole for 18 h. […] The synchronized cells were washed with PBS prior to the addition of fresh medium containing the indicated nucleosides and/or bases.
Cells grown in 10 cm dishes were trypsinized, spun down and suspended in 10 ml PBS containing 0.5% FBS. […], the cells were resuspended in 0.5 ml PBS/0.5% FBS, and fixed in 5 ml 70% ethanol at −20° C. […] and washing with 10 ml PBS/0.5% FBS, the cells were suspended in 1.5 ml PBS/0.5% FBS containing 10 μg/ml propidium iodide and 50 μg/ml RNase A, and incubated at 37° C. for 30 min. Cell cycle distribution was analyzed with a FACScan flow analyzer (Becton Dickinson).

HT-29 cells [2] = test: WST-1 cell growth/viability assay, HT-29; assay type: cell-based, human; details: for effect of PARP inhibitor on the reduction in succinate-tetrazolium reductase activity by 5-FU and hmUdR: inhibitor added simultaneously with 5-FU and hmUdR; for GI50: Homo sapiens, HT-29, 72 h, 72 hours
Protocol: Indicated concentrations of drugs were added to wells one day after seeding. […] Cell proliferation was quantitated by measuring 450 nm absorbance and 600 nm as a background. All assays were performed in triplicate. […] The minimal combination index […] for each cell line was obtained from the isobologram parameters.

HT-29 cells [3] = test: Neutral comet assay (double-strand breaks); assay type: cell-based, human; details: 0.5 μM FU and/or 5 μM hmUdR, 48 h
Protocol: (§1) After incubation for indicated time periods (12-48 h), the cells were trypsinized and washed in PBS. For time course experiments, cells harvested at each time point were stored in 10% DMSO/40% DMEM/50% FBS at −80° C. until slide processing. Approximately 5,000 cells were spread in 0.9% low-melting point agarose/PBS on CometSlide (Trevigen), and chilled at 4° C. in the dark for 20 min.
For neutral comet assay, slides were soaked in precooled lysis buffer at 4° C. for 30 min, followed by washing in precooled 1×TBE buffer (90 mM Tris-borate, pH8.3, 2 mM EDTA). Slides were electrophoresed in 1×TBE buffer at 2 V/cm for 20 min at 4° C., rinsed in deionized water, washed in 70% ethanol for 5 min, and allowed to dry in the dark. Subsequently, slides were processed as above for DNA staining and comet analyses. Neutral comet assays were conducted in duplicate, in each of which more than 60 comets for each condition were analyzed.

[4] = system: HT-29 cells expressing GFP-H2B; test: Time-lapse microscopy of cell divisions; assay type: cell-based, human; details: 0.5 μM 5-FU and/or 5 μM hmUdR
Protocol: HT-29 cells were infected with a retroviral vector for expression of […] histone H2B. HT-29 cells expressing GFP-H2B were seeded at 2×10^5 cells/well in 6-well plates. On the following day, drug treatments were initiated and cell proliferation was monitored by time-lapse microscopy. Image acquisition was done at the Light Microscope Facility at Fox Chase Cancer Center using phase-contrast and GFP-specific fluorescence microscopy (Nikon TE2000S) controlled by Metamorph (Molecular Devices). Images were captured at a rate of one frame per 15 minutes for 60 hours, in which cells were kept at 37° C. Images were captured from 10 areas per well. The number of cell divisions that occurred in each area was counted for the first 24 h and the second 24 h periods.

HT-29 cells [5] = test: Alkaline comet assay (single-strand breaks); assay type: cell-based, human; details: 48 h; for number of DNA single-strand breaks: 0.5 μM 5-FU and/or 5 μM hmUdR
Protocol: as §1
For alkaline comet assay, slides were soaked in precooled lysis buffer containing 2.5 M NaCl/100 mM EDTA/10 mM Tris/1% sarkosyl/1% Triton X-100 at 4° C. for 45 min, followed by soaking in precooled 300 mM NaOH/1 mM EDTA at 4° C. for 45 min. Subsequently, slides were electrophoresed in 300 mM NaOH/1 mM EDTA at 1.4 V/cm for 20 min at 4° C., washed in 70% ethanol for 5 min, and allowed to dry in the dark. Cellular DNA was stained with 1×SYBR Green I (Molecular Probes) 30 min before analysis with a fluorescence microscope. Alkaline comet assays were performed in triplicate and more than 30 comets for each condition were photographed at the Light Microscope Facility at Fox Chase Cancer Center, and analyzed by CometScore software (TriTek).

HT-29 cells [6] = test: CyQUANT cell proliferation assay; assay type: cell-based, human; details: 3AB present with 5-FU and hmUdR for 72 h
Protocol: Cell proliferation assays measuring genomic DNA were carried out using the CyQUANT kit (Invitrogen). In these experiments, the cells after drug treatments were replated to grow in the absence of the drugs for six days, and their nucleic acids was quantitated by CyQUANT assay. These assays were also conducted in triplicate.

HT-29 cellular DNA = test: Quantitation of 5-FU and hmUdR incorporated into cellular DNA; assay type: cell-based, human; details: at 48 h
Protocol: [6-^3H]-5-FU (18 Ci/mmol) and of [^3H]-hmUdR (10 Ci/mmole) were purchased from Moravek Biochemicals. […] At 24 or 48 h after drug addition, cells were washed with PBS and their DNA was recovered with Trizol (Invitrogen) according to the manufacturer's instruction. Subsequently the recovered DNA was quantitated by 260 nm absorbance, and its radioactivity was measured by liquid scintillation counting.

human CRC HT-29 cells = test: Cell growth assay, Example 2; assay type: cell-based
PARP1 = test: Immunoblot detection of PARP1 cleavage; assay type: cell-based, human; details: 5-FU and hmUdR 72 h; control 50 μM LY294002 1 h followed by 4 h 100 μg/ml TRAIL
Protocol: After […] on ice, cells were scraped and […] for 10 min at 4° C. The supernatant was recovered. This whole cell extract (50 μg protein) was subjected to SDS-containing polyacrylamide gel electrophoresis, and transferred to Immobilon-P membrane (Millipore). For detection of poly(ADP-ribose), the nuclear pellet was recovered after removing the whole cell extract as prepared above except that the lysis buffer was supplemented with 50 μM ethacridine, an inhibitor of poly(ADP-ribose) glycohydrolase. 10 μg protein of the nuclear pellet was subjected to gel electrophoresis and transfer to membrane as described above. Primary antibodies used in this study were anti-PARP1 monoclonal mouse antibody (Trevigen), anti-p62 polyclonal rabbit antibody (Santa Cruz Biotechnology), anti-LC3 polyclonal rabbit antibody (Novus Biologicals), anti-β-actin monoclonal mouse antibody (Sigma), and anti-PCNA monoclonal antibody (PC10; Santa Cruz Biotechnology), anti-poly(ADP-ribose) mouse monoclonal antibody (Tulip Biolabs). […] Immunoblot signals were detected either by Odyssey Imaging System (LI-COR Biotechnology) or by exposure of X-ray films to the membrane soaked in ECL reagent (GE Healthcare).

[7] = 5 mM caffeine for the last 24 h
[8] = 0.5 μM 5-FU + 5 μM hmUdR, WST-1

Molecule: Cn1c(=O)c2c(ncn2C)n(C)c1=O [caffeine]
- effect of caffeine on the S phase arrest induced by 5-FU alone (HT-29 cells [1]; [7]): abolished
- effect of caffeine on the S phase arrest induced by the combination of 5-FU and hmUdR (HT-29 cells [1]; [7]): resistant
- effect of caffeine on the G2/M arrest of cells incubated with 3AB, 5-FU and hmUdR (HT-29 cells [1]; unsynchronized HT-29 cells): partially released the G2/M arrest

Molecule: O=c1[nH]c(=O)n([C@H]2C[C@H](O)[C@@H](CO)O2)cc1O [hUdR, 5-hydroxy-2′-deoxyuridine]
- enhancement of 5-FU activity / synergy with 5-FU (HT-29 cells [2]; HT-29, 72 hours): to a lesser extent, hUdR (FIG. 5E) acted synergistically

Molecule: CN1C(=O)C(Cc2c[nH]c3ccccc23)NC1=S (stereo not shown) [Nec-1]
- effect of necroptosis inhibitor on the growth inhibition effect of 5-FU and hmUdR (HT-29 cells [2]; [8]): did not reduce

Molecule: O=c1[nH]c(=O)n([C@H]2C[C@H](O)[C@@H](CO)O2)cc1CO [hmUdR, 5-Hydroxymethyl-2′-deoxyuridine]
- number of double strand breaks (HT-29 cells [3]): increased
- number of cell divisions per view field, second 24 h period relative to first 24 h period [4]: 1.4±0.2 times
- cell cycle distribution (HT-29 cells [1]; unsynchronized HT-29 cells, 5 μM hmUdR alone, 48 h): did not change the cell cycle distribution
- number of DNA single-strand breaks (HT-29 cells [5]): did not significantly increase

Molecule: O=Cc1cn([C@H]2C[C@H](O)[C@@H](CO)O2)c(=O)[nH]c1=O [foUdR, 5-formyl-2′-deoxyuridine]
- activity with 5-FU relative to hmUdR (HT-29 cells [2]; HT-29, 72 hours): comparable
- enhancement of 5-FU activity / synergy with 5-FU (HT-29 cells [2]; HT-29, 72 hours): acted synergistically

Molecule: O=c1[nH]cc(CO)c(=O)[nH]1 [5-hydroxymethyluracil]
- enhancement of 5-FU activity / synergy with 5-FU (HT-29 cells [2]; HT-29, 72 hours): did not significantly enhance

Molecule: COC(=O)CC(NC(=O)C(NC(=O)c1ccc2ccccc2n1)C(C)C)C(=O)COc1c(F)cccc1F (stereo not shown) [QVD, Quinolyl-valyl-O-methylaspartyl-[-2,6-difluorophenoxy]-methyl ketone]
- effect of caspase inhibitor on the growth inhibition effect of 5-FU and hmUdR (HT-29 cells [2]; [8]): did not diminish

Molecule: C[C@]1(c2nc3c(C(N)=O)cccc3[nH]2)CCCN1 [ABT-888]
- effect of PARP inhibitor on the reduction in succinate-tetrazolium reductase activity by 5-FU and hmUdR (HT-29 cells [2]): partially corrected

Molecule: NC(=O)c1cccc(N)c1 [3AB, 3-aminobenzamide]
- effect of PARP inhibitor on the reduction in succinate-tetrazolium reductase activity by 5-FU and hmUdR (HT-29 cells [2]): partially corrected
- rescue of the effect of 5-FU and hmUdR on cell proliferation (CyQUANT) (HT-29 cells [6]): did not rescue
- effect of 3AB on the S phase arrest induced by 5-FU and hmUdR (HT-29 cells [1]; 3 mM 3AB added simultaneously with 0.5 μM 5-FU and 5 μM hmUdR): enabled most cells to progress through S phase to G2/M
- effect of 3AB on the number of strand breaks caused by 5-FU and hmUdR (HT-29 cells [5]; 3 mM 3AB, 0.5 μM 5-FU, 5 μM hmUdR): significantly decreased

Molecule: O=c1ccn([C@H]2C[C@H](O)[C@@H](CO)O2)c(=O)[nH]1 [UdR, 2′-deoxyuridine]
- enhancement of 5-FU activity / synergy with 5-FU (HT-29 cells [2]; HT-29, 72 hours): neither UdR nor heUdR significantly enhanced

Molecule: O=c1[nH]cc(F)c(=O)[nH]1 [5-FU, 5-fluorouracil]
- incorporation of 5-FU into cellular DNA in the presence of hmUdR (HT-29 cellular DNA): decreased
- GI50 (HT-29 cells [2]; read-out: GI50 of HT-29 cells for 5-FU, 5-FU alone): 19 µM
- GI50 (HT-29 cells [2]; read-out: GI50 of HT-29 cells for 5-FU, combined with hmUdR): < 0.1 µM
- number of double strand breaks (HT-29 cells [3]): no significant effect
- effect on HT-29 cell growth of increasing concentration in the absence of fdU (human CRC HT-29 cells): minimal effect
- cells accumulated in S phase (HT-29 cells [1]; unsynchronized HT-29 cells, 0.5 μM 5-FU and/or 5 μM hmUdR, 48 h): 52%
- number of DNA single-strand breaks (HT-29 cells [5]): did not significantly increase

Molecule: O=c1[nH]c(=O)n([C@H]2C[C@H](O)[C@@H](CO)O2)cc1CCO [heUdR, 5-hydroxyethyl-2′-deoxyuridine]
- enhancement of 5-FU activity / synergy with 5-FU (HT-29 cells [2]; HT-29, 72 hours): neither UdR nor heUdR significantly enhanced

B1: TRAIL: used with LY294002 as positive control for PARP1 cleavage; known to cause apoptosis (protein, UniProt P50591 1-281, looked up)
Tumor necrosis factor ligand …: MAMMEVQGGPSLGQTCVLIVIFTVLLQSLCVAVTYVYFTNELKQMQDKYSKSGIACFLKEDDSYWDPNDEESMNSPCWQVKWQLRQLVRKMILRTSEETISTVQEKQQNISPLVRERGPQRVAAHITGTRGRSNTLSSPNSKNEKALGRKINSWESSRSGHSFLSNLHLRNGELVIHEKGFYYIYSQTYFRFQEEIKENTKNDKQMVQYIYKYTSYPDPILLMKSARNSCWSKDAEYGLYSIYQGGIFELKENDRIFVSVTNEHLIDMDHEASFFGAFLVG
- PARP1 cleavage (characteristic of apoptosis) (PARP1): induced
